Measured values published in patent publication US20100144722A1, “NOVEL HETEROCYCLIC COMPOUNDS AS GATA MODULATORS” (Dr. Reddy's Laboratories Ltd., priority 2008, published 2010).

System: GATA1
Assay: GATA Assay (GATA luciferase reporter in transfected HepG2 cells)
Assay type: cell-based, Human
Conditions: HepG2 cells transfected with GATA Translucent Reporter Vector, luciferase normalized to total protein
Description: Human HepG2 (ATCC) cells were grown in Eagle's Minimum Essential Media (MEM) containing 10% heat inactivated Fetal Bovine Serum (FBS) (Invitrogen) and 5 mL Penicillin-Streptomycin (Invitrogen) in T75 flasks (Corning) in a 37° C./5% CO2 tissue culture incubator (Thermo Electron Corporation) prior to the study. 96-well plates (Corning) were seeded in MEM containing 10% FBS to yield ˜50% confluency. The following day, cells were transfected using FuGENE 6 transfection reagent (Roche) and […] GATA Translucent Reporter Vector (Panomics) according the manufacturer's (Roche) protocol and incubated for about 10-19 h. The next day, the cells were treated with equal volumes of vehicle, dimethyl sulfoxide (DMSO) (Hybri-Max Sterile Filtered Sigma Aldrich) or compounds of formula (I) (in DMSO) diluted in MEM containing 1% FBS. The treated cells were incubated about 8-19 h. The next day the treatment media was removed and the cells were lysed and assayed for luciferase activity using the luciferase assay system (Promega) and using the Envision plate reader (Perkin Elmer). The lysates were also used to measure total protein content with the MicroBCA protein assay kit (Pierce) using the Multiskan Ascent plate reader at 570 nm. Luciferase values were normalized to total protein and fold induction was calculated.
Compounds that show an increase of ≧40% in luciferase levels at ≦20 μm concentration were considered as GATA activators.

SMILES	GATA1 Activation (Fold Change Vs Control) (5μ compound) [Fold]	GATA1 Activation (Fold Change Vs Control) (10μ compound) [Fold]
CC(C)Oc1cc(-c2ccccc2)nc(Nc2ccc(C3(C(=O)O)CCC3)cc2)n1 [Example 68, 1-[4-(4-isopropoxy-6-phenyl-pyrimidin-2-ylamino)-phenyl]-cyclobutane-carboxylic acid]	2.57	2.44
CC(C)(C)Nc1nc(Nc2ccc(C3(C(=O)O)CCC3)cc2)cc(-c2ccccc2)n1 [Example 55, 1-[4-(2-tert-butylamino-6-phenyl-pyrimidin-4-ylamino)-phenyl]-cyclobutane-carboxylic acid]	2.86	2.40
Cc1noc(C)c1-c1cc(N2CCOCC2)nc(Nc2ccc(C3(C(=O)O)CCC3)cc2)n1 [Example 30, 1-{4-[4-(3,5-dimethyl-isoxazol-4-yl)-6-morpholin-4-yl-pyrimidin-2-ylamino]-phenyl}-cyclobutanecarboxylic acid]	1.64	1.74
O=C(O)C1(c2ccc(Nc3nc(NC4CCCC4)cc(C4CCCC4)n3)cc2)CCC1 [Example 25, 1-[4-(4-cyclopentyl-6-cyclopentylamino-pyrimidin-2-ylamino)-phenyl]-cyclobutanecarboxylic acid]	3.69	3.32
O=C(O)C1(c2ccc(Nc3nc(NC4CCCC4)cc(-c4ccccc4)n3)cc2)CCC1 [Example 16, 1-[4-(4-cyclopentylamino-6-phenyl-pyrimidin-2-ylamino)-phenyl]-cyclobutane-carboxylic acid]	2.44	2.13
